Experimental data published in PubChem BioAssay AID1963825 (Molecular Pharmacology Branch, DTP, NCI, 2024).

Assay: Anticancer human tumor 997537-175-T-J1-PDC patient-derived colon adenocarcinoma cell line growth inhibition [POLQ]
Settings: 997537-175-T-J1-PDC complex spheroid viability, combination with POLQ inhibitors; for IC50: curve of first compound; for viability, T/C: stronger effect = lower value
How it was run: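 Patient-derived tumour cells were co-cultured with HUVEC and mesenchymal stem cells as multicellular spheroids at 37 °C. They were treated with POLQ inhibitors (novobiocin, ART-558, RP6685) alone or combined with other agents. Top concentrations were at or near clinical Cmax (otherwise 10 microM; SN-38 at 1 microM), decreasing in half-log steps.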

[1] = second compound 0.0316 µM, first compound 0.0316 µM
[2] = second compound 0.0316 µM, first compound 0.1 µM
[3] = second compound 0.0316 µM, first compound 0.316 µM
[4] = second compound 0.0316 µM, first compound 1 µM
[5] = second compound 0.0316 µM, first compound 3.16 µM
[6] = second compound 0.0316 µM, first compound 10 µM
[7] = second compound 0.1 µM, first compound 0.0316 µM
[8] = second compound 0.1 µM, first compound 0.1 µM
[9] = second compound 0.1 µM, first compound 0.316 µM
[10] = second compound 0.1 µM, first compound 1 µM
[11] = second compound 0.1 µM, first compound 3.16 µM
[12] = second compound 0.1 µM, first compound 10 µM
[13] = second compound 0.316 µM, first compound 0.0316 µM
[14] = second compound 0.316 µM, first compound 0.1 µM
[15] = second compound 0.316 µM, first compound 0.316 µM
[16] = second compound 0.316 µM, first compound 1 µM
[17] = second compound 0.316 µM, first compound 3.16 µM
[18] = second compound 0.316 µM, first compound 10 µM
[19] = second compound 1 µM, first compound 0.0316 µM
[20] = second compound 1 µM, first compound 0.1 µM
[21] = second compound 1 µM, first compound 0.316 µM
[22] = second compound 1 µM, first compound 1 µM
[23] = second compound 1 µM, first compound 3.16 µM
[24] = second compound 1 µM, first compound 10 µM
[25] = second compound 3.16 µM, first compound 0.0316 µM
[26] = second compound 3.16 µM, first compound 0.1 µM
[27] = second compound 3.16 µM, first compound 0.316 µM
[28] = second compound 3.16 µM, first compound 1 µM
[29] = second compound 3.16 µM, first compound 3.16 µM
[30] = second compound 3.16 µM, first compound 10 µM
[31] = second compound 10 µM, first compound 0.0316 µM
[32] = second compound 10 µM, first compound 0.1 µM
[33] = second compound 10 µM, first compound 0.316 µM
[34] = second compound 10 µM, first compound 1 µM
[35] = second compound 10 µM, first compound 3.16 µM
[36] = second compound 10 µM, first compound 10 µM
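Further: luminescence signal used as a surrogate for viable cells; spheroids exposed to drugs for seven days before readout.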

COc1cc2cc(C(=O)CCC(=O)O)sc2cc1OC + COC1C(OC(N)=O)C(O)C(Oc2ccc3c(O)c(NC(=O)c4ccc(O)c(CC=C(C)C)c4)c(=O)oc3c2C)OC1(C)C gave an IC50 (second compound 0.0316 µM) greater than 10 µM, an IC50 (second compound 0.1 µM) greater than 10 µM and an IC50 (second compound 0.316 µM) greater than 10 µM. The IC50 (second compound 1 µM) was greater than 10 µM, the IC50 (second compound 3.16 µM) was greater than 10 µM and the IC50 (second compound 10 µM) was greater than 10 µM. The viability, T/C [1] was 95.1%, the viability, T/C [2] was 98.6% and the viability, T/C [3] was 88.1%. For the same compound, the viability, T/C [4] was 92.5%, the viability, T/C [5] was 89.7% and the viability, T/C [6] was 80.3%. It also gave a viability, T/C [7] of 94.3%, a viability, T/C [8] of 96.3% and a viability, T/C [9] of 87.5%. It also gave a viability, T/C [10] of 93.5%, a viability, T/C [11] of 99.1% and a viability, T/C [12] of 92.2%. For the same compound, the viability, T/C [13] was 101%, the viability, T/C [14] was 108% and the viability, T/C [15] was 99.9%. It also gave a viability, T/C [16] of 96.2%, a viability, T/C [17] of 86.2% and a viability, T/C [18] of 91.8%. It also gave a viability, T/C [19] of 100%, a viability, T/C [20] of 98.4% and a viability, T/C [21] of 104%. It also gave a viability, T/C [22] of 93.5%, a viability, T/C [23] of 100% and a viability, T/C [24] of 90.4%. It also gave a viability, T/C [25] of 96.2%, a viability, T/C [26] of 101% and a viability, T/C [27] of 96.5%. For the same compound, the viability, T/C [28] was 101%, the viability, T/C [29] was 97.3% and the viability, T/C [30] was 105%. It also gave a viability, T/C [31] of 97.2%, a viability, T/C [32] of 89.6% and a viability, T/C [33] of 95.5%. For the same compound, the viability, T/C [34] was 104%, the viability, T/C [35] was 94.8% and the viability, T/C [36] was 84.1%.
With O=C(Nc1ccc(O)c(NS(=O)(=O)c2ccc(F)cc2)c1)c1ccc(-c2ccccc2)cc1 + COC1C(OC(N)=O)C(O)C(Oc2ccc3c(O)c(NC(=O)c4ccc(O)c(CC=C(C)C)c4)c(=O)oc3c2C)OC1(C)C the IC50 (second compound 0.0316 µM) was greater than 10 µM, the IC50 (second compound 0.1 µM) was greater than 10 µM and the IC50 (second compound 0.316 µM) was greater than 10 µM. The IC50 (second compound 1 µM) was greater than 10 µM, the IC50 (second compound 3.16 µM) was greater than 10 µM and the IC50 (second compound 10 µM) was greater than 10 µM. It also gave a viability, T/C [1] of 98.4%, a viability, T/C [2] of 109% and a viability, T/C [3] of 104%. For the same compound, the viability, T/C [4] was 103%, the viability, T/C [5] was 102% and the viability, T/C [6] was 97.3%. For the same compound, the viability, T/C [7] was 112%, the viability, T/C [8] was 94.4% and the viability, T/C [9] was 97%. The viability, T/C [10] was 88.8%, the viability, T/C [11] was 96% and the viability, T/C [12] was 95.1%. For the same compound, the viability, T/C [13] was 108%, the viability, T/C [14] was 102% and the viability, T/C [15] was 105%. The viability, T/C [16] was 96%, the viability, T/C [17] was 102% and the viability, T/C [18] was 97.3%. The viability, T/C [19] was 98.3%, the viability, T/C [20] was 98.7% and the viability, T/C [21] was 86%. For the same compound, the viability, T/C [22] was 94%, the viability, T/C [23] was 93.9% and the viability, T/C [24] was 99.3%. The viability, T/C [25] was 97.5%, the viability, T/C [26] was 93.2% and the viability, T/C [27] was 91.8%. For the same compound, the viability, T/C [28] was 90.2%, the viability, T/C [29] was 97.5% and the viability, T/C [30] was 98.8%. The viability, T/C [31] was 93.6%, the viability, T/C [32] was 95.7% and the viability, T/C [33] was 109%. It also gave a viability, T/C [34] of 91.5%, a viability, T/C [35] of 102% and a viability, T/C [36] of 91.5%.
COc1cccc2c1C(=O)c1c(O)c3c(c(O)c1C2=O)CC(O)(C(=O)CO)CC3OC1CC(N)C(O)C(C)O1 (stereo unspecified) + Cc1cccc(N(C)C(=O)C2C(O)CCN2c2nc(C)cc(C(F)(F)F)c2C#N)c1 showed an IC50 (second compound 0.0316 µM) of 2.65 µM, an IC50 (second compound 0.1 µM) of 2.39 µM and an IC50 (second compound 0.316 µM) of 4.16 µM. The IC50 (second compound 1 µM) was 1.54 µM, the IC50 (second compound 3.16 µM) was 2 µM and the IC50 (second compound 10 µM) was 1.78 µM. It also gave a viability, T/C [1] of 81.4%, a viability, T/C [2] of 98.2% and a viability, T/C [3] of 104%. It also gave a viability, T/C [4] of 85.8%, a viability, T/C [5] of 43.6% and a viability, T/C [6] of 10.9%. The viability, T/C [7] was 101%, the viability, T/C [8] was 102% and the viability, T/C [9] was 113%. The viability, T/C [10] was 76.6%, the viability, T/C [11] was 42.2% and the viability, T/C [12] was 9.45%. The viability, T/C [13] was 99.3%, the viability, T/C [14] was 108% and the viability, T/C [15] was 116%. It also gave a viability, T/C [16] of 95.4%, a viability, T/C [17] of 63.4% and a viability, T/C [18] of 9.08%. For the same compound, the viability, T/C [19] was 92.8%, the viability, T/C [20] was 111% and the viability, T/C [21] was 99.8%. The viability, T/C [22] was 63.7%, the viability, T/C [23] was 26.1% and the viability, T/C [24] was 9.7%. For the same compound, the viability, T/C [25] was 82.9%, the viability, T/C [26] was 115% and the viability, T/C [27] was 92.2%. It also gave a viability, T/C [28] of 97%, a viability, T/C [29] of 18.8% and a viability, T/C [30] of 10.2%. It also gave a viability, T/C [31] of 102%, a viability, T/C [32] of 104% and a viability, T/C [33] of 90.7%. The viability, T/C [34] was 56.2%, the viability, T/C [35] was 41.9% and the viability, T/C [36] was 9.99%.
